Experimental data taken from PubChem BioAssay (NCI).
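Grown in 96-well plates, cells were treated for 48 hours with each compound at five concentrations. Insufficient inhibition: endpoint recorded as highest concentration tested. GI50: concentration for 50% inhibition of growth. TGI: concentration producing complete growth inhibition.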

Legend:
Assay in all cases: inhibition of tumour cell growth, NCI panel, 48 h
[1] = test system: SK-MEL-28 melanoma
[2] = test system: SK-OV-3 ovarian
[3] = test system: RXF 393 renal
[4] = test system: OVCAR-4 ovarian
[5] = test system: SR leukemia
[6] = test system: HT29 colon
[7] = test system: HL-60(TB) leukemia
[8] = test system: DU-145 prostate
[9] = test system: HCT-116 colon
[10] = test system: 786-0 renal

Row | SMILES | GI50 [1] | TGI [1] | GI50 [2] | TGI [2] | GI50 [3] | TGI [3] | GI50 [4] | TGI [4] | GI50 [5] | TGI [5] | GI50 [6] | TGI [6] | GI50 [7] | TGI [7] | GI50 [8] | TGI [8] | GI50 [9] | TGI [9] | GI50 [10] | TGI [10]
1 | COc1ccc(-c2n[nH]nc2-c2cc(OC)c3c(c2OC)OCO3)cc1 | 1.95 µM | > 100 µM | 1.27 µM | 9.3 µM | 1.1 µM | 5.37 µM | 4.81 µM | > 76.3 µM | 0.299 µM | 22.6 µM | 0.48 µM | 13.7 µM | 0.293 µM | 0.975 µM | 1.61 µM | 13.6 µM | 0.424 µM | 19.2 µM | 3.07 µM | 71.9 µM
2 | Cc1cc2c3ccc(C)[n+](C)c3ccc2n1C | 6.05 µM | 19.5 µM | 2.88 µM | 9.41 µM | 4.01 µM | 44.2 µM | 4.18 µM | 30.1 µM | 4.24 µM | > 100 µM | 3.07 µM | 23.8 µM | 1.92 µM | 18.7 µM | 5.09 µM | 51.5 µM | 2.31 µM | 33.1 µM | 5 µM | > 100 µM
3 | O=C(c1ccccc1)C(CN1CCOCC1)c1ccccc1 (stereo not given) | 1.76 µM | 3.35 µM | 5.18 µM | 17.9 µM | 1.8 µM | 3.36 µM | 3.88 µM | 19.3 µM | 1.02 µM | 4.45 µM | 0.501 µM | 1.89 µM | 1.95 µM | 5.57 µM | 1.16 µM | 2.44 µM | 0.609 µM | 2.08 µM | 2.72 µM | 6.93 µM
